Measured values taken from patent publication US7985567B2, “Host cells and methods for producing 3-methyl-2-buten-1-ol, 3-methyl-3-buten-1-ol, and 3-methyl-butan-1-ol” (The Regents of the University of California, priority 2007, dated 2011).

Test system: S. cerevisiae BY4741 cells
Assay: In vivo reduction of 3-methyl-2-butenol or 3-methyl-3-butenol to 3-methyl-butanol by yeast
Format: cell-based, Saccharomyces cerevisiae
Settings: 1 g/l substrate added after 48 hours, grown an additional 2 days; versus no substrate or 3-methyl-3-butenol; FIG. 3
Experimental: To test the capability of yeast to catalyze the conversion of 3-methyl-2-butenol to isopentanol, 5 ml. of YPD medium with 2% glycerol, in a 100 ml culture tube, was inoculated with an overnight culture of freshly plated S. cerevisiae BY4741 cells to achieve a final absorbance of 0.5 at 600 nm (A600). The cultures were grown at 30° C. at 200 r.p.m. After 48 hours, either 3-methyl-2-butenol or 3-methyl-3-butenol (1 g/l) was added to the culture.
Cultures were sampled after addition of 3-methyl-2-butenol or 3-methyl-3-butenol and grown for an additional 2 days. The samples were collected by pelleting 1 ml of culture, and adding 150 μl of the supernatant to 750 μl of the extraction solvent (80:20 chloroform:methanol spiked with 50 mg l^−1 of butanol internal standard). The samples were vortexed for 15 minutes and centrifuged for 2 minutes at 5000 r.c.f. 450 μl of the organic layer was removed from each sample and transferred to a clean GC vial for analysis. The GC-MS data were collected in full-scan mode (m/z 50-300) using a Tr-Wax column (0.25 mm×30 m, 0.25 μm film thickness; Thermo Electron) on a PolarisQ GC-MS with TriPlusautosampler (Thermo Electron). The carrier flow was 1.2 ml min^−1, and the inlet temperature was set to 200° C. The oven program was as follows: 40° C. […] Samples were normalized using the butanol internal standard and quantified using authentic standards.

CC(C)=CCO [3-methyl-2-butenol, 3-methyl-2-buten-1-ol]
isopentanol production by yeast grown in the presence of the alcohol substrate: significantly more isopentanol
